Consider eight compounds from patent EP0738149B1 (priority 1994, dated 1995).

The structures appear in SMILES notation. Like-named read-outs stand apart in the source and are kept apart here.

Data set [1] has as its system rats. In words: Neurotoxicity in rats (positional sense test and gait stance test), p.o. To be noted: rats, p.o.; Table 16. The procedure: (§1) Neurotoxicity of the claimed agents was also assessed in mice (i.p. administration) by the rotorod ataxia test and/or in rats (p.o. administration) by positional sense test and gait stance test. […] The term quantitating the neurotoxicity is the medial neurological toxic dose (TD50), was determined in the above tests.

Test in data set [2]: as above
Particulars: rat, in vivo, po. How it is done:
as §1

Data set [3] concerns rats. To be noted: Rattus norvegicus, po, read-out: RATS scMet ED50.
The test system of data set [4] is rats. In words: Maximal electroshock (MES) model in rats, p.o.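 Also: rat MES model gauging antiepileptic efficacy versus generalized and partial seizures after oral dosing.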 The class given is in vivo. Particulars: Rattus norvegicus, po, Table 15.
The nature of data set [5]: in vivo. To be noted: mouse, in vivo, ip, MICE TD50. The procedure:
as §1

The test system of data set [6] is mice. In words: in vivo. Particulars: mouse, in vivo, ip. How it is done: as §1
Data set [7] concerns mice. To be noted: Mus musculus, ip.
The subject of data set [8] is mice. In words: Maximal electroshock (MES) model in mice, i.p.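 As to all read-outs here: Electroshock-induced convulsion model serving to demonstrate antiepileptic efficacy against generalized and partial seizures.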 The class given is in vivo. Particulars: for ED50: Mus musculus, ip, Table 15. In general terms: In the maximal electroshock model the usual endpoint is tonic extension of the hind limbs.
Data set [9] concerns male ICR albino mice. In words: Hypobaric hypoxia survival time in mice. The class given is in vivo. The procedure:
Dessicator B was disconnected and allowed to equilibrate with room air whilst dessicator A was evacuated to a pressure of 100mmHg. […] The survival time from the moment of induction of hypoxia to the time of cessation of respiration was recorded for each mouse for a maximum of 15 minutes after which time room air was reintroduced to dessicator B. Survivors were monitored for signs of lethargy or vitality.
Effect of drug treatment was assessed as the percent of the survival time of the drug treated group with respect to the saline injected or vehicle injected control group. Control groups were run twice, before and after each experimental group and consisted of 12-16 mice in groups of 4 mice. Each experimental group always consisted of 4 mice to ensure a constant residual volume of oxygen in all tests. The effect of each dose of test drug was determined in duplicate i.e. two groups of 4 mice.
All drugs were administered intra-peritoneally at the dose indicated one hour prior to exposure to hypoxia.

For data set [10], the system named is mechanically dissociated neonatal rat cerebellum. In words: Reversal of NMDA induced cell death in cultures of neonatal rat cerebellum. Particulars: for SURVIVING CELL IN CULTURE: relative to control (100%); for PERCENT PROTECTION: Cell Survival minus the NMDA effect; for EFFECTIVE PROTECTION: X x 100/70. The class given is cell-based. The procedure:
The cerebellum was aseptically dissociated from 6 or 7-day old rat pups and placed in a 15ml sterile plastic conical tube containing 3ml of Dulbecco's modified Eagle's medium (DMEM) with a high glucose concentration ([…]) and 2mM (v/v) L-glutamine and an antibiotic antimitotic mixture. The cerebella were then dissociated after 20-25 passages through a sterile 13 gauge, 10cm long stainless steel needle attached to a 5ml syringe with an inserted 45 micrometer pore nylon sieve. The dissociated cells were centrifuged at 200g for 5 minutes. The supernatant was discarded and the cells resuspended in medium enriched with 15% (v/v) heat inactivated fetal calf serum. Cell viability was determined by the tryptan blue exclusion test.
Cells were plated at a density of 200/mm^2 on poly-L-lysine coated surfaces. Poly-L-lysine coated glass coverslips were prepared at least one hour in advance of plating by immersing sterile coverslips in sterile distilled water solution containing 15 microgram/ml poly-L-lysine, and washing in sterile water just prior to use. The plated cells were covered with enriched medium and incubated at 37°C in an atmosphere of 5% CO2 in air and 97% humidity. After three days in culture, the media was replaced with media containing the desired test compound. Each test compound was tested in duplicate. Toxic-dose response was determined for each compound.
Four groups were run in each set of experiments; • I. Control, consisting of enriched media alone, • II. N-methyl-D-aspartate (NMDA, 1mM for 3 hours) as the cytotoxic challenge, • III. Test compound plus NMDA, and • IV. Positive control, spermine(0.01 micromoles) plus NMDA.
Nerve cell survival was evaluated by phase contrast microscopy and tryptan blue staining after 24 hours.
Surviving cells in culture are measured relative to control (100%), as described above. Percent protection is the Cell Survival for the test compound minus the NMDA effect. Thus, maximal protection is 100% minus 30% NMDA effect i.e. […]. The Effective Protection was calculated as the percent of the Percent Protection (X) divided by the maximal protection value (e.g. X x 100/70).

Data set [11] concerns Male mongolian gerbils. In words: Global brain ischemia in gerbils (CA1 pyramidal neurons). The data set is classed as in vivo. Particulars: 3 injections, fraction of hippocampi protected from ischemia, 14 days post-ischemia. The procedure:
Each artery was clamped for 5 minutes with aneurysm clips to produce global brain ischemia. The anesthesia was discontinued upon clamping. After 5 minutes the clamps were removed and the wound closed with skin clips.
For treatment, the test compound or vehicle were injected intra-peritoneally (ip) in a volume of 50 microliters of solvent per 10g body weight. The first injection was given two minutes after clamp removal, and thereafter daily for the next 2 post-operative days (total of 3 injections).
Seven groups each of 4-8 animals were compared: • I. Control; (sham- or unoperated and saline treated), • II. Vehicle treated, unoperated (when solvent is other than saline), • III. Ischemia - untreated or saline treated), • IV. Ischemia - vehicle treated (when solvent is other than saline), • V. Ischemia - Test compound treated, one sub-group per concentration tested, • VI. Ischemia and pentobarbital (40 mg/kg) as positive control).
Analysis of neuronal damage was performed 14 days post-ischemia by counting pyramidal neurons throughout the CA1 layer of the anterior hippocampus in […] thick (paraffin) coronal brain sections stained with hematoxylin and erosin.
Percent Protection values represent the fraction of hippocampi protected from ischemia in a group of animals treated with the stated dose of compound.

Setting [12] is: rats, p.o., read-out: RATS MES 50.
[13] abbreviates: read-out: MICE scMet ED50, mice, i.p., Table 16.

For the compound `O=CNC1CCc2ccccc21` (racemic) [Example 8, (rac)-N-Formyl-1-aminoindan], the “RATS TD50” value in data set [1] is over 500 mg/kg. The compound further yielded a TD50 in data set [2] of over 500 mg/kg. Further, the ED50 is over 250 mg/kg in [3] and 24 mg/kg in data set [4] (setting [12]).
`COc1ccc2c(c1)C(NC(C)=O)CC2` (racemic) [Example 26, (rac) 6-methoxy-N-acetyl-1-aminoindan]: in [1], the “RATS TD50” value is over 500 mg/kg. Also, in [2], the TD50 was over 500 mg/kg. In addition, the ED50 was over 250 mg/kg in data set [3] and 40 mg/kg in data set [4] (setting [12]).
On to `COc1ccc2c(c1OC)CC[C@H]2NC(C)=O` [Example 21, (R)-4,5-Dimethoxy-N-acetyl-1-aminoindan], for which the “RATS TD50” value in data set [1] is on record as over 500 mg/kg. Besides, the figures for the TD50 in [2] and in data set [5] were over 500 mg/kg and 137 mg/kg, respectively. Besides, the ED50 in data set [3] was over 250 mg/kg; in data set [7] (setting [13]), 150 mg/kg; in [8], 40 mg/kg; in [4] (setting [12]) it was 21 mg/kg. Also, the “MICE TD50” value in data set [6] came out at 137 mg/kg.
As to `CC(=O)N[C@@H]1CCc2ccc(F)cc21` [Example 23, (R)-6-Fluoro-N-acetyl-1-aminoindan], the “RATS TD50” value in data set [1] was over 500 mg/kg. The TD50 in data set [2] is over 500 mg/kg; in data set [5], 155 mg/kg. Also, the ED50 in data set [3] is over 250 mg/kg; in [7] (setting [13]), 155 mg/kg; in data set [8] it was 65 mg/kg; in data set [4] (setting [12]), 25 mg/kg. In [6], the “MICE TD50” value turned out to be 155 mg/kg.
Turning to `C#CCN[C@H]1CCc2ccccc21.Cl` [G, (S)-N-propargyl-1-aminoindan HCl salt], the ED50 in [3] was over 250 mg/kg; in data set [7] (read-out: MICE scMet ED50), over 250 mg/kg; in data set [8], 57 mg/kg; in data set [4] (read-out: RATS MES 50, rats, p.o.), 57 mg/kg.
With `NC1CCc2ccc(F)cc21` (stereo not shown) [I, 6-fluoro-1-aminoindan], the “RATS TD50” value in data set [1] is recorded as over 50 mg/kg. Besides, the TD50 is over 50 mg/kg in [2] and 58 mg/kg in [5]. In addition, the ED50 in [3] was over 100 mg/kg; in data set [8] it was 66 mg/kg; in data set [4] (setting [12]) it was under 50 mg/kg. For the same compound, the “MICE TD50” value in [6] was 58 mg/kg.
For `N[C@@H]1CCc2ccc(F)cc21` [J, (R)-6-fluoro-1-aminoindan], the “PROTECTION % OF RESPECTIVE CONTROL” value in data set [9] (50 mg/kg ip one hour prior to hypoxia) was 305±185 % OF RESPECTIVE CONTROL; in [9] (100 mg/kg ip one hour prior to hypoxia), 241±56 % OF RESPECTIVE CONTROL. In addition, in data set [1], the “RATS TD50” value is given as over 50 mg/kg. The TD50 in data set [2] was over 50 mg/kg; in data set [5] it was 78 mg/kg. Also, the ED50 in data set [3] is over 100 mg/kg; in data set [8], 65 mg/kg; in [4] (setting [12]) it was under 50 mg/kg. The “MICE TD50” value in [6] is listed as 78 mg/kg. The “SURVIVING CELL IN CULTURE” value in [10] (0.005 µM + NMDA 1mM for 3 hours) is recorded as 108%; in data set [10] (0.010 µM + NMDA 1mM for 3 hours), 79%; in data set [10] (0.100 µM + NMDA 1mM for 3 hours) it was 62%; in data set [10] (1.000 µM + NMDA 1mM for 3 hours), 53%; in data set [10] (5.000 µM + NMDA 1mM for 3 hours), 60%. The “PERCENT PROTECTION” value is listed as 78% in [10] (0.005 µM + NMDA); 49% in [10] (0.010 µM + NMDA); 32% in data set [10] (0.100 µM + NMDA); 23% in data set [10] (1.000 µM + NMDA); 30% in data set [10] (5.000 µM + NMDA); 27.5% in data set [11] (0.1 mg/kg ip). The “PERCENT PROTECTION” value in [11] (1.0 mg/kg ip) and in [11] (10.0 mg/kg ip) was 25.0% each time. The “EFFECTIVE PROTECTION” value in [10] (0.005 µM + NMDA) was 111%; in data set [10] (0.010 µM + NMDA), 70%; in data set [10] (0.100 µM + NMDA) it was 46%; in data set [10] (1.000 µM + NMDA), 33%; in data set [10] (5.000 µM + NMDA), 43%.
As for `C#CCNC1CCc2ccc(F)cc21` (stereo not shown) [L, 6-fluoro-N-propargyl-1-aminoindan], in [1], the “RATS TD50” value was over 50 mg/kg. The TD50 in data set [2] is over 50 mg/kg; in [5], 188 mg/kg. For the same compound, the ED50 was over 300 mg/kg in data set [3], 74 mg/kg in [8] and 50 mg/kg in data set [4] (setting [12]). Besides, the “MICE TD50” value in [6] worked out at 188 mg/kg. For the same compound, in [8] (statement in words), the “activity in the MES model in mice” value is “showed activity”.
